Results on 18 compounds are retold here after US12655090B2, “Cyclopropylamide compounds against parasites in fish” (Intervet Inc., priority 2021, dated 2026).

Assay [1] deals with Lepeophtheirus salmonis sea lice on salmon (Salmo salar). The assay is described as follows: Salmon in vivo efficacy trial using in-feed administration. The following applies: 1 mg/kg fish biomass via coated feed for 7 consecutive days; for therapeutic efficacy against juvenile sea lice: day -3 infestation, counted around day 25; for therapeutic efficacy against (pre-)adult sea lice: day -28 infestation, counted around day 8. As for the experimental part:
Commercial fish feed pellets were coated with formulated test compound. As formulation DMSO 5%/fish oil 95% was used. Salmon (Salmo salar) were treated orally with 1 mg/kg fish biomass via coated feed for 7 consecutive days. Salmon of the negative control groups received only feed coated with the excipients of the formulation. Fish of the therapeutic groups were infested with Lepeophtheirus salmonis copepodids twice before treatment (around day −28 and day −3).

For assay [2] the test system is unchanged. As to the kind of experiment: Salmon in vivo efficacy trial using gavage administration. As to conditions: po. As for the experimental part: Salmon (Salmo salar) were treated once orally by gavage at a dose of 5 mg/kg bodyweight per fish (Day 0). As formulation DMSO 5%/fish oil 95% was used. Salmon of the negative control group received only the excipients of the formulation. The fish were infested with Lepeophtheirus salmonis copepodids twice before treatment (i.e., around day −28 and day −3) and once after treatment (i.e., day 17). […] Around day 28 (end of animal phase), fish were euthanized, and lice on each fish were classified ((pre-)adult or juvenile stage) and counted. […] Efficacy is expressed as a % reduction of sea lice in treated groups versus a control group, using the Abbott's formula.

Assay [3] relates to fully susceptible Lepeophtheirus salmonis isolate, mobile sea lice stages. As to the kind of experiment: Sea lice resistance assay, sensitive isolate. The method, then:
(§1) A sea lice resistance assay was carried out using mobile sea lice stages (i.e., pre-adults, adults) of several Lepeophtheirus salmonis-isolates with known resistance profiles (i.e., fully susceptible or multiresistant (resistant to azametiphos (OP), emamectin benzoate (ML), deltamethrin (SP)). Sea lice were exposed to seawater spiked with declining concentrations of a test compound (dissolved in a PEG300/sea-water mixture). Sea lice inhibition (% of dead+damaged sea lice) was assessed after approximately 24 and 48 hours of continuous exposure in comparison to a negative (solvent) control group.

For assay [4], the system named is Copepodids (juvenile sea lice stage of Lepeophtheirus salmonis). The assay is described as follows: Juvenile sea lice contact assay. The following applies: approximately 24 hours continuous exposure in seawater, read-out: Sea lice inhibition (% of dead+damaged copepodids); for inhibition at 0.001 µM: test concentration 1 nM; for inhibition at 0.0001 µM: test concentration 0.1 nM; for inhibition at 0.01 µM: test concentration 10 nM; for inhibition at 0.1 µM: test concentration 100 nM; for inhibition at 10 pM: test concentration 0.01 nM. As for the experimental part: Copepodids (juvenile sea lice stage of Lepeophtheirus salmonis) were exposed to seawater spiked with declining concentrations of a test compound (dissolved in a DMSO sea-water mixture). Sea lice inhibition (% of dead+damaged copepodids) was assessed after approximately 24 hours of continuous exposure. The vitality of used parasites was confirmed in a negative (solvent) control group.

The test system of assay [5] is Mobile stages of sea lice (pre-adults, adults of Lepeophtheirus salmonis). As to the kind of experiment: Adult sea lice contact assay. The following applies: assessed after approximately 1 and 24 hours of continuous exposure, read-out: EC50 (sea lice inhibition, dead+damaged sea lice). The method, then:
Mobile stages of sea lice (i.e., pre-adults, adults of Lepeophtheirus salmonis) were exposed to seawater spiked with declining concentrations of a test compound (dissolved in a PEG sea-water mixture). Sea lice inhibition (% of dead+damaged sea lice) was assessed after approximately 1 and 24 hours of continuous exposure in comparison to a negative (solvent) control group.

Assay [6] concerns multiresistant Lepeophtheirus salmonis isolate (resistant to azametiphos, emamectin benzoate, deltamethrin), mobile sea lice stages. The assay is described as follows: Sea lice resistance assay, multi-resistant isolate. As for the experimental part:
as §1

Setting [7] is: 168 h, read-out: therapeutic efficacy against (pre-)adult sea lice (% reduction vs control, Abbott's formula), once orally by gavage 5 mg/kg bodyweight, day -28 infestation, counted at day 7.
Where [8] appears, read: 672 h, read-out: prophylactic efficacy at re-infestation on Day 17 (% reduction vs control, Abbott's formula), once orally by gavage 5 mg/kg bodyweight, re-infestation day 17, counted around day 28.
The mark [9] stands for this setting: 672 h, read-out: therapeutic efficacy against juvenile sea lice (% reduction vs control, Abbott's formula), once orally by gavage 5 mg/kg bodyweight, day -3 infestation, counted around day 28.

Where two headings read alike, the source gives them in different places. Bounds are passed on as bounds.

Regarding `N#CC1(NC(=O)c2cc(NC(=O)[C@H]3[C@H](c4cc(Cl)cc(Cl)c4)C3(Cl)Cl)ccc2Cl)CC1` [Compound 1590], the “therapeutic efficacy against juvenile sea lice” value in assay [1] was found to be 100%. In addition, the “therapeutic efficacy against (pre-)adult sea lice” value in assay [1] was 100%. Besides, in assay [1], the “prophylactic efficacy against re-infestation after treatment (D14)” value (“prophylactic efficacy … (D14)” below) came to 100%. Besides, the “prophylactic efficacy against re-infestation after treatment (D28)” value (shortened to “prophylactic efficacy … (D28)”) in assay [1] came out at 79.2%. Also, the figures for the inhibition in vivo at 5 mg/kg in assay [2] (setting [7]), in assay [2] (setting [8]) and in assay [2] (setting [9]) were 100%, 80% and 80%, respectively. The EC50 in assay [3] (after 24 hours) was 4.12 ppb; in assay [3] (after 48 hours) it was 0.40 ppb; in assay [5] it was no more than 1 nM; in assay [6] (after 24 hours), 3.75 ppb; in assay [6] (after 48 hours), 0.58 ppb. Further, in assay [4], the inhibition at 0.001 µM was 80%.
For the compound `N#CC1(NC(=O)c2cc(NC(=O)[C@H]3[C@H](c4cc(Cl)cc(Cl)c4)C3(Cl)Cl)cc(F)c2F)CC1` [Compound 1594], in assay [1], the “therapeutic efficacy against juvenile sea lice” value amounted to 100%, the “therapeutic efficacy against (pre-)adult sea lice” value amounted to 100%, the “prophylactic efficacy … (D14)” value was 100% and the “prophylactic efficacy … (D28)” value is given as 100%. In assay [2] (setting [7]), the inhibition in vivo at 5 mg/kg stood at 100%. Besides, the inhibition in vivo at 5 mg/kg in assay [2] (setting [8]) came out at 100%. In addition, in assay [2] (setting [9]), the inhibition in vivo at 5 mg/kg turned out to be 100%. For the same compound, in assay [4], the inhibition at 0.0001 µM worked out at 80%. Moreover, in assay [5], the EC50 is no more than 1 nM.
As to `CC1(NC(=O)c2cc(NC(=O)[C@H]3[C@H](c4cc(Cl)cc(Cl)c4)C3(Cl)Cl)ccc2Cl)CC1` [Compound 1619], the inhibition in vivo at 5 mg/kg in assay [2] (setting [7]) worked out at 100%; in assay [2] (setting [9]) it was 80%. Further, the inhibition at 0.01 µM in assay [4] stood at 100%. The EC50 in assay [5] was no more than 1 nM.
For the compound `O=C(NC1CC(F)(F)C1)c1cc(NC(=O)[C@H]2[C@H](c3cc(Cl)cc(Cl)c3)C2(Cl)Cl)ccc1Cl` [Compound 1625], the inhibition in vivo at 5 mg/kg in assay [2] (setting [7]), in assay [2] (setting [8]) and in assay [2] (setting [9]) was 100% each time. Also, the inhibition at 0.1 µM in assay [4] amounted to 100%. For the same compound, the EC50 in assay [5] is no more than 1 nM.
For `N#CC1(NC(=O)c2cc(NC(=O)[C@H]3[C@H](c4cc(F)c(F)c(F)c4)C3(Cl)Cl)ccc2Cl)CC1` [Compound 1624], the values for the inhibition in vivo at 5 mg/kg in assay [2] (setting [7]), in assay [2] (setting [8]) and in assay [2] (setting [9]) were 100%, 80% and 80%, respectively. Moreover, the inhibition at 0.0001 µM in assay [4] was 100%. In addition, in assay [5], the EC50 lay within 1 to 10 nM.
Regarding `N#CC1(NC(=O)c2cc(NC(=O)[C@H]3[C@H](c4cc(F)c(F)c(F)c4)C3(Cl)Cl)ccc2F)CC1` [Compound 1623], the inhibition in vivo at 5 mg/kg in assay [2] (setting [7]) turned out to be 100%; in assay [2] (setting [9]), 80%. Further, in assay [4], the inhibition at 0.0001 µM is 100%. For the same compound, the EC50 in assay [5] lay within 1 to 10 nM.
For the compound `C#CC1(NC(=O)c2cc(NC(=O)[C@H]3[C@H](c4cc(Cl)cc(Cl)c4)C3(Cl)Cl)ccc2F)CC1` [Compound 1633, 5-((1R,3R)-2,2-dichloro-3-(3,5-dichlorophenyl)cyclopropane-1-carboxamido)-N-(1-ethynylcyclopropyl)-2-fluorobenzamide], the inhibition in vivo at 5 mg/kg in assay [2] (setting [7]) was determined as 100%; in assay [2] (setting [8]) it was 80%; in assay [2] (setting [9]) it was 100%. Besides, the inhibition at 0.001 µM in assay [4] was 80%. Moreover, the EC50 in assay [5] is no more than 1 nM.
As for `N#CC1(NC(=O)c2cc(NC(=O)[C@H]3[C@H](c4ccc(Br)c(Cl)c4)C3(Cl)Cl)ccc2Cl)CC1` [Compound 1585], the inhibition in vivo at 5 mg/kg in assay [2] (setting [7]) and in assay [2] (setting [9]) was 100% throughout. The inhibition at 0.1 µM in assay [4] turned out to be 100%. The EC50 in assay [5] fell in the range of 1 to 10 nM.
For `O=C(NCC(F)(F)F)c1cc(NC(=O)[C@H]2[C@H](c3cc(Cl)cc(Cl)c3)C2(Cl)Cl)ccc1Cl` [Compound 1592], the inhibition in vivo at 5 mg/kg in assay [2] (setting [7]) and in assay [2] (setting [9]) was 100% in each case. Besides, the inhibition at 0.0001 µM in assay [4] amounted to 80%. Also, the EC50 in assay [5] was no more than 1 nM.
Regarding `O=C(NC1CC1)c1cc(NC(=O)[C@H]2[C@H](c3cc(Cl)cc(Cl)c3)C2(Cl)Cl)cc(F)c1F` [Compound 1618], the inhibition in vivo at 5 mg/kg in assay [2] (setting [7]), in assay [2] (setting [8]) and in assay [2] (setting [9]) was 100% each time. The inhibition at 0.01 µM in assay [4] was found to be 100%. Moreover, the EC50 in assay [5] is no more than 1 nM.
As for `O=C(NC1CC(F)(F)C1)c1cc(NC(=O)[C@H]2[C@H](c3cccc(C(F)(F)F)c3)C2(Cl)Cl)ccc1Cl` [Compound 1601], the inhibition in vivo at 5 mg/kg in assay [2] (setting [7]) and in assay [2] (setting [9]) was 100% each time. The inhibition at 0.001 µM in assay [4] worked out at 100%. Also, in assay [5], the EC50 is 1 to 10 nM.
Consider `O=C(NC1CC1)c1cc(NC(=O)[C@H]2[C@H](c3cc(Cl)cc(Cl)c3)C2(Cl)Cl)ccc1Cl` [Compound 1621], for which the inhibition in vivo at 5 mg/kg in assay [2] (setting [7]) worked out at 100%; in assay [2] (setting [9]), 80%. Moreover, in assay [4], the inhibition at 0.01 µM was found to be 100%. In addition, the EC50 in assay [5] was no more than 1 nM.
Regarding `N#CC1(NC(=O)c2cc(NC(=O)C3C(c4cc(Cl)cc(Cl)c4)C3(Cl)Cl)ccc2F)CC1` (stereo not shown) [Compound 1605], the inhibition in vivo at 5 mg/kg in assay [2] (setting [7]) and in assay [2] (setting [9]) was 100% in each case. Also, the inhibition at 10 pM in assay [4] was found to be 100%. The EC50 in assay [5] was no more than 1 nM.
For `O=C(NCC(F)(F)F)c1cc(NC(=O)[C@H]2[C@H](c3cc(F)c(F)c(F)c3)C2(Cl)Cl)ccc1Cl` [Compound 1593], the inhibition in vivo at 5 mg/kg in assay [2] (setting [7]) amounted to 100%; in assay [2] (setting [9]), 80%. Also, the inhibition at 10 pM in assay [4] worked out at 100%. Besides, the EC50 in assay [5] is no more than 1 nM.
Turning to `N#CC1(NC(=O)c2cc(NC(=O)[C@H]3[C@H](c4cc(Cl)c(Cl)c(Cl)c4)C3(Cl)Cl)ccc2Cl)CC1` [Compound 1541], in assay [1], the “therapeutic efficacy against juvenile sea lice” value is recorded as 100%, the “therapeutic efficacy against (pre-)adult sea lice” value came to 100%, the “prophylactic efficacy … (D14)” value is 100% and the “prophylactic efficacy … (D28)” value is 100%. For the same compound, the inhibition in vivo at 5 mg/kg in assay [2] (setting [7]) worked out at 80%. For the same compound, the inhibition in vivo at 5 mg/kg in assay [2] (setting [8]) came out at 100%. In assay [2] (setting [9]), the inhibition in vivo at 5 mg/kg worked out at 100%. Moreover, the inhibition at 0.01 µM in assay [4] came to 100%. For the same compound, the EC50 in assay [5] lay in the range of 1 to 10 nM.
For the compound `O=C(NCC(F)(F)F)c1cc(NC(=O)[C@H]2[C@H](c3ccc(F)c(F)c3)C2(Cl)Cl)ccc1Cl` [Compound 1584], the inhibition in vivo at 5 mg/kg in assay [2] (setting [7]) came out at 100%. Also, the inhibition at 0.0001 µM in assay [4] came to 100%. In addition, the EC50 in assay [5] is no more than 1 nM.
As to `O=C(NC1CC(F)(F)C1)c1cc(NC(=O)[C@H]2[C@H](c3cc(Cl)cc(Cl)c3)C2(Cl)Cl)ccc1F` [Compound 1630], the inhibition in vivo at 5 mg/kg in assay [2] (setting [7]), in assay [2] (setting [8]) and in assay [2] (setting [9]) was 100% throughout. Also, the inhibition at 0.01 µM in assay [4] stood at 100%. For the same compound, the EC50 in assay [5] is no more than 1 nM.
Turning to `C#CCNC(=O)c1cc(NC(=O)[C@H]2[C@H](c3cc(Cl)cc(Cl)c3)C2(Cl)Cl)ccc1Cl` [Compound 1622], in assay [2] (setting [7]), the inhibition in vivo at 5 mg/kg is 100%. Moreover, the inhibition at 0.01 µM in assay [4] was no less than 80%. In addition, in assay [5], the EC50 was no more than 1 nM.
